# “Also recorded” adds a separate entry of the source. Like-named read-outs stand apart in the source and are kept apart here.
# Key:
# [1] = tested on: jugular vein; test: Force development in isolated jugular vein rings; assay type: cell-based, rabbit (male New Zealand white); details: for Force development / vasoconstriction (result in words): cumulative addition, isolated vessel; for EC50: read-out: EC50 for ricinoleic acid-induced force
# Method: (§1) Male New Zealand white rabbits were euthanized by intravenous barbiturate overdose. The thoracic aorta and the left and right external jugular veins were then removed into warm (37° C.) physiological salt solution (PSS) of the following composition (mM): NaCl, 118.4; KCl, 4.7; CaCl2, 2.5; MgSO4, 1.2; NaHCO3, 24.9; KH2 PO4, 1.2; glucose, 11.1 and EDTA, 0.023; gassed with 95% O2 /5% CO2, pH 7.4. The vessels were cleaned of fat and loose adventitia and subsequently cut into rings 3-4 mm in width. The endothelium was removed from the rings, unless otherwise indicated, by gently rotating a metal probe in the lumen of the ring. The rings were then suspended in water-jacketed (37° C.) 10 ml tissue baths between two wire holders, one of which was attached to a fixed hook and the other to an isometric force transducer. Resting tension was set at 4 g for the aorta and 1 g for the jugular vein. The venous tissues were allowed to stabilize for a period of one hour and then challenged with a maximally effective concentration of bradykinin (1 μM) to evoke a tonic contracture. This response was used as a comparative reference response. Carbachol (1 μM) was introduced into the bath following stabilization of the bradykinin contracture to test for the presence of endothelium. […] The tissues were washed multiple times with fresh PSS and allowed to recover for one hour following complete relaxation from the previous bradykinin response. […] Inhibitors (enzyme or receptor) or their vehicle were introduced into the tissue bath 30 mins prior to the addition of stimulant.
# (§2) Cremophor and ricinoleic acid (Sigma Chemical company) were also diluted in ethanol. […] Ricinoleic acid was diluted in ethanol to produce final bath concentrations of (μg/ml; final bath concentration of ethanol in parentheses): 0.1 (0.1%), 0.3 (0.3%), 1.0 (0.37%), 3.0 (0.57%), 10 (0.64%), 30 (0.84%). For reference, 0.1-30 μg/ml ricinoleic acid corresponds to a molar concentration range of 0.335-100.50 μM.
# (§3) Force (mean±S.E.) is expressed as a percentage of the corresponding bradykinin or phenylephrine reference response. KB values were determined by Schild analysis and KBapp by the following formula: KBapp =[antagonist]/agonist concentration ratio-1, where agonist concentration ratio=agonist EC50 measured in presence of antagonist/agonist EC50 measured in presence of vehicle. The statistical significance between means was determined using Student's t-test with p<0.05 considered statistically significant.
# [2] = tested on: Cremophor-induced force development in the jugular vein (thromboxane A2 receptors); test: Inhibition of Cremophor-induced force in the jugular vein; assay type: cell-based, rabbit; details: for Effect on vasoconstrictor effects of Cremophor (words): indomethacin 10 μM
# Method: as §1, §2, §3
# [3] = molecular target: T1, CsA-induced force development in the jugular vein (thromboxane A2 receptors) (Oryctolagus cuniculus, UniProt Q6WQI8); test: Inhibition of CsA-induced force in the jugular vein; assay type: cell-based, rabbit; details: for Effect on potency and maximal contractile effect of CsA (words): phentolamine 10 μM
# T1 sequence (Q6WQI8 1-233): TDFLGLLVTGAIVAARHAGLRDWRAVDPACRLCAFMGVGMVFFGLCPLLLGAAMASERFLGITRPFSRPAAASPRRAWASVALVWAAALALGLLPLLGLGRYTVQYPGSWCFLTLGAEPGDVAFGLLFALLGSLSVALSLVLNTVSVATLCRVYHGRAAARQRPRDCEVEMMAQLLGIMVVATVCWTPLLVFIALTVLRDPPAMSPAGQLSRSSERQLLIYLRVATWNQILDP
# Method: as §1, §2, §3
# [4] = molecular target: thromboxane A2 receptor; details: dog coronary artery, Cocks et al 1990; cited from earlier work
# [5] = tested on: ricinoleic acid-induced force in the jugular vein (thromboxane A2 receptors); test: Antagonism of ricinoleic acid-induced force in the jugular vein; assay type: cell-based, rabbit; details: indomethacin, vein only
# Method: as §1, with “stimulant. A similar procedure was followed for the aorta except the effects of carbachol (1 μM) were tested against a submaximal concentration of phenylephrine (0.3 μM) and 30 μM phenylephrine was used to establish a reference contracture.” for “stimulant.”
# as §2, §3
# [6] = tested on: aorta; test: Force development in isolated thoracic aorta rings; assay type: cell-based, rabbit (male New Zealand white)
# Method: as §1, with “stimulant. […]” for “stimulant.”
# as §3
# [7] = Solubility in physiological salt solution bath; assay type: physicochemical; details: pH 7.4, ricinoleic acid in tissue bath, read-out: Concentration at which precipitation begins
# [8] = tested on: rat aorta; test: Ricinoleic acid force development in rat aorta; assay type: cell-based
structure (smiles),measurement,setting,value
CCO [ethanol],Emax at 0.44 %,"[1]; Oryctolagus cuniculus, cumulative addition of 0.44% ethanol, n=3, read-out: Force as % of bradykinin reference force",24.1 ± 3.3%
same,Force development / vasoconstriction (result in words),[1],constrict the vein
COc1ccc(Cl)cc1C(=O)NCCc1ccc(S(=O)(=O)NC(=O)NC2CCCCC2)cc1 [glyburide],Kb,"[2]; Oryctolagus cuniculus, against Cremophor-induced force, glyburide 10 μM, n=3, read-out: KBapp",900 nM
same,Schild slope,[3]; against CsA-induced force,0.7
same,Kb,"[3]; against CsA-induced force, Schild analysis, read-out: KB",600 nM
same,Kb,"[3]; against CsA-induced force, glyburide 10 μM, n=4, read-out: KBapp",1500 nM
same,inhibition at 10 µM,[3]; read-out: Inhibition (reversal) of CsA-induced contraction,57.1%
same,Kb,[4],600 nM
COc1ccc2c(c1)c(CC(=O)O)c(C)n2C(=O)c1ccc(Cl)cc1 [indomethacin],Effect on vasoconstrictor effects of Cremophor (words),[2],The contractile effects of neither ricinoleic acid nor Cremophor were prevented
same,Effect on vasoconstrictor effects of Cremophor (words),[2]; listed as Indomethacin,failed to significantly inhibit the vasoconstrictor effects of Cremophor
same,Effect on ricinoleic acid-induced force (words),[5],The contractile effects of neither ricinoleic acid nor Cremophor were prevented
same,Effect on ricinoleic acid-induced force (words),[5]; listed as Indomethacin,no significant effect on ricinoleic acid-induced force
Cc1ccc(N(CC2=NCCN2)c2cccc(O)c2)cc1 [phentolamine],Effect on potency and maximal contractile effect of CsA (words),[3],insensitive to phentolamine; also recorded: failed to antagonize the effects of CsA
same,Effect on potency and maximal contractile effect of CsA (words),[3]; listed as Phentolamine,significantly affected neither the potency nor the maximal contractile effect of CsA
CCCCCC[C@@H](O)C/C=C\CCCCCCCC(=O)O [ricinoleic acid],EC50,"[1]; Oryctolagus cuniculus, control for indomethacin comparison, n=4",0.17 ± 0.05 µg/mL
same,EC50,"[1]; Oryctolagus cuniculus, in presence of indomethacin, n=4",0.4 ± 0.11 µg/mL
same,EC50,"[1]; Oryctolagus cuniculus, jugular vein, molar conversion",800 nM
same,EC50,"[1]; Oryctolagus cuniculus, jugular vein, n=9",0.24 ± 0.04 µg/mL
same,Force development / vasoconstriction (result in words),[1],cause vasoconstriction
same,Force development / vasoconstriction (result in words),[1]; listed as Ricinoleic acid,concentration-dependent increases in force
same,Fold more potent than Cremophor,[1]; in the vein,165 times
same,Fold more potent in vein than in aorta,"[1]; ricinoleic acid, vein vs aorta",approximately 20 times
same,Thromboxane A2 agonist character,[1]; summary conclusion,weak thromboxane A2 agonist
same,EC50,"[6]; Oryctolagus cuniculus, rabbit aorta, n=5, read-out: EC50 for ricinoleic acid-induced force",4.7 ± 0.7 µg/mL
same,Force development (result in words),[6]; aorta,concentration-dependent increases in force
same,Fold more potent than Cremophor,[6]; in the aorta,326 times
same,solubility,[7],≥ 100 µg/mL
same,Emax at 100 µg/mL,"[8]; 100 μg/ml ricinoleic acid, rat aorta, n=4, read-out: Force as % of maximum phenylephrine-induced response",18.8 ± 2.5%
same,EC50,"[8]; rat aorta, n=4, read-out: EC50 for ricinoleic acid-induced force",> 10000 nM
same,Sensitivity of rat aorta,[8]; vs vein or rabbit aorta,considerably less sensitive

# — patent publication US5462726A, “Method of inhibiting side effects of solvents containing ricinoleic acid or castor oil or derivatives thereof employing a thromboxane A2 receptor antagonist and pharmaceutical compositions containing such solvents” (priority 1993, dated 1995)
